Data reported in patent US20260224563A1, “CRYSTALLINE FORMS OF 6-(3-((5-CHLORO-2-METHOXYPYRIDINE)-3-SULFONAMIDO)-2,6-DIFLUOROPHENYL)-N-METHYLIMIDAZO[1,5-A]PYRAZINE-1-CARBOXAMIDE AND METHODS FOR USING THE SAME” (HIBERCELL, INC., priority 2023, published 2026).
Where a name gives a salt, the structure may show the parent alone.

How the values were obtained:
[1] = Heating of potassium salt forms (XRPD/DSC after heating); assay type: physicochemical
[2] = Water activity study of the crystalline potassium salt forms (acetone/water suspension, XRPD); assay type: physicochemical; conditions: for Relative stability of crystalline forms: versus Form III of the potassium salt
Description: A water activity study of the potassium salt forms was conducted in two groups: (i) Form I and Form III of the potassium salt, and (ii) Form II and Form III of the potassium salt.
Each suspension was shaken at 700 rpm in a shaker at 25° C., 35° C., 45° C., and 50° C., and the sample was analyzed by XRPD.

| SMILES | Stability of the hydrate ([1]; 24° C.±2° C. and 50-80% relative humidity) | Changes to XRPD pattern or DSC thermogram upon heating ([1]; heating to 180° C.) | Time of conversion to Form III of the potassium salt ([2]; KF wt. %>0.19, 25-50° C., KF wt. %~0.1, 25° C. in acetone/water) | Relative stability of crystalline forms ([2]; KF wt. %≤0.1 at 35-50° C. in acetone/water) | Changes to XRPD patterns and DSC thermograms after heating ([1]; heating to 160° C.) | Relative stability of crystalline forms ([2]; aw≥0.93 at temperatures≤25° C.) |
| --- | --- | --- | --- | --- | --- | --- |
| CNC(=O)c1ncn2cc(-c3c(F)ccc(NS(=O)(=O)c4cc(Cl)cnc4OC)c3F)ncc12 [Potassium salt Form I, 6-(3-((5-chloro-2-methoxypyridine)-3-sulfonamido)-2,6-difluorophenyl)-N-methylimidazo[1,5-a]pyrazine-1-carboxamide] | stable | No changes | ≤ 1 days | more stable |  |  |
| CNC(=O)c1ncn2cc(-c3c(F)ccc(NS(=O)(=O)c4cc(Cl)cnc4OC)c3F)ncc12 [Potassium salt Form II, 6-(3-((5-chloro-2-methoxypyridine)-3-sulfonamido)-2,6-difluorophenyl)-N-methylimidazo[1,5-a]pyrazine-1-carboxamide] |  |  |  |  | slight change | more stable |
